Source: patent US9512172B2, “Ethanol dependence of alpha1 antitrypsin C-terminal Lys truncation by basic carboxypeptidases” (Baxalta Incorporated, priority 2006, dated 2016)

How the values were obtained:
CPN [1] = molecular target: T1, CPN (Homo sapiens, UniProt P15169); settings: cited from earlier work
T1 sequence (P15169 21-458): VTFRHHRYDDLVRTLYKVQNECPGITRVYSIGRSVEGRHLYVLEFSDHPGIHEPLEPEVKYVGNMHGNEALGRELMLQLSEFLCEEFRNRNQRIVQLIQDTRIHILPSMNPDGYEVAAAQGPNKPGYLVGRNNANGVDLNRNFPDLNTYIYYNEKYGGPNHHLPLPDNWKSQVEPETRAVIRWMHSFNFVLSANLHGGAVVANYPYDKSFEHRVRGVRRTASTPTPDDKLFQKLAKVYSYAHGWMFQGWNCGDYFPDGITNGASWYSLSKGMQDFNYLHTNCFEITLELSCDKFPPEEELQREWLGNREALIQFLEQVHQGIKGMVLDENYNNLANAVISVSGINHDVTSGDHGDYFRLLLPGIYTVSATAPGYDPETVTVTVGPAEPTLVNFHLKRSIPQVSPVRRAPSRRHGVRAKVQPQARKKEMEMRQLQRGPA
T1 sequence (P22792 22-545 partner): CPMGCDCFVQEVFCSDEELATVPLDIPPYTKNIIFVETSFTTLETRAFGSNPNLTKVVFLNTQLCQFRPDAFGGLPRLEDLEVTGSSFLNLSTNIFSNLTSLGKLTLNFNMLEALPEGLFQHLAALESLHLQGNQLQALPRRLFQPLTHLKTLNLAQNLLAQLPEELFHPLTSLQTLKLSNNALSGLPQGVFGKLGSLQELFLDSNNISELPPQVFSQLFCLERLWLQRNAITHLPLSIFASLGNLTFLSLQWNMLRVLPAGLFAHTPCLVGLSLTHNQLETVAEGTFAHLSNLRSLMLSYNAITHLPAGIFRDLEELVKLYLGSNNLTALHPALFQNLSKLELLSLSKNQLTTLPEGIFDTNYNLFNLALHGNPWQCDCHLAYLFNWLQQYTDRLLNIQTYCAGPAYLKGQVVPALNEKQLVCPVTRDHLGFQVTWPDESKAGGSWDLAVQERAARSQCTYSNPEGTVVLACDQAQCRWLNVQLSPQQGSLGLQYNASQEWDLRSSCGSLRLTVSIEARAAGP

CPU = molecular target: T2, CPU (Homo sapiens, UniProt Q96IY4); settings: cited from earlier work
T2 sequence (Q96IY4 115-423): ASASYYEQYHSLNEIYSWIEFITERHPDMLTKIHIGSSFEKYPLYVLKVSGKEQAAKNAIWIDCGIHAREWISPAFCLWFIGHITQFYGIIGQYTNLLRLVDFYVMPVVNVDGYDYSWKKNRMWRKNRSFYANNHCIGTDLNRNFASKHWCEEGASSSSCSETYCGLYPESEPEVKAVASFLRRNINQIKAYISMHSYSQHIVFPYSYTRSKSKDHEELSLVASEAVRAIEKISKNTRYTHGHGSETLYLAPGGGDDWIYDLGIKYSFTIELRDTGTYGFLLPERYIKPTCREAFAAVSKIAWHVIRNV

CPN present in the paste = molecular target: T3, CPN present in the paste (Homo sapiens, UniProt P15169); assay: Effect of CP inhibitors on C-terminal lysine truncation in dissolved, ethanol-treated IV-1 paste (IEF); format: biochemical
T3 construct: Cohn IV-1 precipitate is usually derived after ethanol fractionation of plasma; from tissue; host or cells: Cohn IV-1 paste (ethanol precipitate of plasma)
T3 sequence (P15169 21-458): T1 sequence (P15169 21-458)
T3 sequence (P22792 22-545 partner): T1 sequence (P22792 22-545 partner)
Protocol: Cohn IV-1 paste was dissolved in 2.6 volumes of 10 mM Tris-buffer at pH 8.8 and incubated for 30 min at 22° C. The suspension was made 40% in ethanol (by addition of 2.4 volumes of ethanol), stirred for a further 60 min, diluted with the same Tris-buffer to 10% ethanol and extracted for a further 6 h.
The following inhibitors were added in parallel during extraction and dilution with Tris-buffer: 100 mM 6-aminocaproic acid, 10 μM or 1 nM 2-mercaptomethyl-3-guanidinoethylthiopropanoic acid (a more specific inhibitor of CPN). The samples were characterized by high resolution isoelectric focusing.
For high resolution isoelectric focusing a new hybrid IEF method using IPG-Immobiline gels (GE Healthcare Bio-Sciences, pI 4.2-4.9, Uppsala, Sweden) was developed which is similar to that described by Weidinger^54. Samples were diluted with water to 0.5 mg A1PI/mL and 5 mM DTE was added. Samples (20 μl) were applied close to the cathode on the pre-focused gel and focused for 150 min (5000 Vh). For paste extracts focusing time was extended to 420 min. Gels were stained with Coomassie Brilliant Blue G-250 (BioRad, Hercules, USA) as described by Neuhoff^55. Blotting and immunostaining were done with a rabbit anti-A1PI antibody (Rabbit Anti-Human Alpha-1-Antitrypsin, #A0012, DakoCytomation, Glostrup, Denmark).

CPN [2] = molecular target: T1, CPN; settings: at 10% ethanol
Protocol: The activity of the basic carboxypeptidases was measured with a HPLC-assisted assay as described^52. This assay is based on the cleavage of the synthetic substrate hippuryl-L-arginine. Released hippuric acid was determined with reverse phase high performance liquid chromatography (RP-HPLC). Briefly, to 10 μl of sample, 40 μl of 30 mM hippuryl-L-arginine (Bachem Feinchemikalien, Buchs, Switzerland) in 50 mM HEPES, pH 8.0, was added and incubated for 30 minutes at 37° C. in a water bath. Hippuryl-L-arginine cleavage was stopped by adding 50 μl of 1 M HCl. 10 μl of o-methyl hippuric acid (synthesized from methylbenzoyl chloride) serving as an internal standard was added afterwards. The hippuric acid (Bz-Gly, Fluka, Buchs, Switzerland) and o-methyl hippuric acid were extracted with ethyl acetate (300 μl). This layer was evaporated to dryness, redissolved in the mobile phase (10 mM KH2PO4, 10% acetonitrile, pH 3.5) and injected unto the column (C-18 Chromolith, performance 100-4.6 mm column (Merck, Darmstadt, Germany). The separation was done in isocratic mode and monitored at 228 nm. One unit of carboxypeptidase activity is defined as the amount of enzyme required to release 1 μmol of hippuric acid per min at 37° C. under the assay conditions described.

SMILES: N=C(N)NCCSCC(CS)C(=O)O (racemic) [DL-2-mercaptomethyl-3-guanidinoethylthio-propanoic acid]
- Ki (CPN [1]): 8.7 nM
- Ki (CPU): 200 nM
- Inhibition of Lys truncation induced by the procedure 40=>10% EtOH (CPN present in the paste; dissolved IV-1 paste, pH 8.8, 6 h): dose-dependently
- Inhibition of lysine removal from A1PI (CPN present in the paste; inhibitor at 10 μmol/l): completely inhibited

SMILES: CCO [ethanol]
- Rate of substrate (Bz-Gly-Arg) cleavage by CPN (CPN [2]): almost doubled
